# Reference: patent publication US5571820A, “Heterocyclic compound” (Taisho Pharmaceutical Co., Ltd., priority 1992, dated 1996)
# What was measured:
# [1] = tested on: gastric emptying; experiment: Activity on gastric emptying in rat (glass spheroids); type: in vivo, male Wistar rats
# Description: Experiment 4. Activity on Gastric Emptying in Rat The activity was investigated by a modification of the method described in British Journal of Pharmacology, 91, 263, 1987. Male Wistar rats weighing 170 to 220 g were used which were deprived of food for 24 hours. Glass spheroids of 500 mg/ml were orally administered to the animal in a dose of 1 ml 30 minutes after subcutaneous administration or 60 minutes after oral administration, of drugs. The glass spheroids remained in the stomach were recovered and their weight was measured to determine gastric emptying to control motility. The compound of the present invention was suspended in physiological saline and the resulting suspension was administered.
# [2] = tested on: gastric motility; experiment: Activity on gastric motility in rat (balloon in stomach, conscious); type: in vivo, male Wistar rats; conditions: for Contraction frequency (% of value prior to administration) / Motility index (% of value prior to administration): 1 mg/kg i.p.
# Description: Experiment 2. Activity on Gastric Motility in Rat Male Wistar rats weighing 250 to 350 g were fasted for 18 hours and then provided for experiment. The abdominal cavity was opened under ether anesthesia and a rubber balloon was inserted into the stomach via the forestomach. A cannula for administering a drug was put in the peritoneal cavity. After recovery from the anesthesia, the balloon was connected to low pressure transducers to record gastric motility in the conscious state. The compound of the present invention was suspended in physiological saline and the suspension was intraperitoneally administered. Contraction frequency and motility index are shown in terms of a proportion (%) of a mean value calculated for 15 minutes to a value prior to administration (0 minute). The value for 0 minute was made a mean value for 30 minutes prior to the administration.
# [3] = molecular target: T1, serotonin 4 receptor (Cavia porcellus, UniProt O70528); experiment: Serotonin 4 receptor stimulating activity: twitch responses of electrically stimulated ileum longitudinal muscle strips; type: cell-based, guinea pig (Hartley)
# T1 construct: from tissue; host or cells: ileum longitudinal muscle strips of Hartley guinea pig
# T1 sequence (O70528 whole entry): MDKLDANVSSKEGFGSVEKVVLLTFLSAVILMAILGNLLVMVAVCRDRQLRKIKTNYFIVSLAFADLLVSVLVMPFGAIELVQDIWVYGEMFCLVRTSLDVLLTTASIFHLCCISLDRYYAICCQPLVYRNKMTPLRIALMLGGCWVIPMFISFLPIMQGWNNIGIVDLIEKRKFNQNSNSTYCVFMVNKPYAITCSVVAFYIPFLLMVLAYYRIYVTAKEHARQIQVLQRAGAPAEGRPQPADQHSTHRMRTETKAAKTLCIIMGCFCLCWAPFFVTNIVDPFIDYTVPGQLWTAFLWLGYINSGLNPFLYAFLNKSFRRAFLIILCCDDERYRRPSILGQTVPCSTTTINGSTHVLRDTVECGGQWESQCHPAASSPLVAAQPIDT
# From the text: Experiment 1. Serotonin 4 Receptor Stimulating Activity Compounds Tested
# Twitch responses were examined in longitudinal muscle strips of guinea pig by a modification of the method described in The Journal of Pharmacology and Experimental Therapeutics, 252, 1378, 1990.
# From Hartley guinea pigs, a section of ileum 25 cm in length and proximal to the ileocecal junction was removed. The longitudinal muscle strips obtained from two segments of ileum about 4 cm each in length were used for this experiment. The longitudinal muscle strips were suspended in Krebs' solution at 32° to 34° C. and bubbled with 95% O2 and 5% CO2 under a load of about 0.8 g. Twitch responses were recorded under electrical stimulation of 0.2 Hz, 1 msec pulse duration, using force displacement transducers. The longitudinal muscle strips, stimulated at supramaximal voltage, were allowed to equilibrate for about an hour. […] The test was carried out by exposing the strips to cumulative additions of agonist at least at 45-minute intervals.
# [4] = tested on: gastrointestinal tract motor action; experiment: Activity on gastrointestinal motor in dogs (strain gauge force transducers, conscious); type: in vivo, Beagle dogs of both sexes; conditions: for Motility index (% of value prior to administration): gastric motor action after feeding
# Description: Experiment 3. Activity on Gastrointestinal Motor in Dogs The activity was determined by a modification of the method described in Gastroenterologia Japonica, 12, 275, 1977. Beagle dogs of both sexes weighing 9 to 15 kg were anesthetized with sodium pentobarbital and strain gauge force transducers were sutured on five (5) portions, i.e., for determining antral, duodenum, jejunal, ileal and colonal motor responses. A cannula for administering a drug was mounted persistently into the jugular vein. After recovery of the surgery, motor responses at those portions on the gastrointestinal tract in both during a fasting period and after feeding were determined in the conscious dogs. The compound of the present invention was administered by dissolving the compound in 5% lactate saline aqueous solution for intravenous injection and for oral administration by suspending the compound in 5% gum arabic aqueous solution. The motor index is shown in terms of a proportion (%) of a mean value calculated for 15 minutes to a value prior to administration (0 minute). The value for 0 minute was made a mean value for 30 minutes prior to the administration. Results
# [5] = Toxicity on consecutive 14-day oral administration in rat; type: in vivo, male Wistar rats
# Description: Experiment 6. Toxicity on Consecutive 14-day Oral Administration in Rat
# Toxicity of consecutive oral administration was investigated by oral administration of male Wistar rats of 5 weeks age, weighing 124 to 140 g and seven rats forming one group, orally received the compound of the present invention for 14 consecutive days in a daily dose of 100 mg/kg or 250 mg/kg once a day. During the course of administration, general conditions were observed and the body weight was measured. At the time when the administration was completed, hematological inspection, hematochemical inspection, urinalysis, anatomical finding, organ weight measurement and pathohistological inspection were performed.
# [6] = tested on: intestinal transit; experiment: Activity on intestinal transit in mice (carbon powder); type: in vivo, male ICR mice; conditions: for Intestinal transit (%): moving rate calculated for control animal
# Description: Experiment 5. Activity on Intestinal Transit in Mice
# The activity was determined by a modification of the method described in YAKURI-TO-CHIRYO, 10, 195, 1982.
# Male ICR mice weighing 20 to 30 g were used which were deprived of food for 24 hours. A suspension containing 5% carbon powder gum arabic was orally administered to the animal in a dose of 1 ml 15 minutes after subcutaneous administration or 30 minutes after oral administration, of drugs. The intestinal tract was removed 20 minutes after. The entire length of the intestinal tract and the distance of the carbon powders moved were measured, and a moving rate was calculated for control animal.
# [7] = 10 min after administration, N = 4
# [8] = 30 min after administration, N = 4
# [9] = 40 min after administration, N = 4
# [10] = 50 min after administration, N = 4
# [11] = 60 min after administration, N = 4
# [12] = 250 mg/kg daily, oral, 14 consecutive days
structure (smiles),measurement,setting,value
"CC(C)n1c(=O)c(C(=O)N[C@H]2C[C@H]3CC[C@@H](C2)N3C)cc2ccccc21 [Compound 1, endo-N-(8-methyl-8-azabicyclo[3.2.1]oct-3-yl)-1-isopropyl-2(1H)-quinolone-3-carboxamide]",effect on gastric emptying,[1]; oral and subcutaneous,dose-dependently accelerated gastric emptying
same,Residual rate in stomach (%),"[1]; p.o. 0.03 mg/kg, 5 cases",67.3%
same,Residual rate in stomach (%),"[1]; p.o. 0.3 mg/kg, 5 cases",64.5%
same,Residual rate in stomach (%),"[1]; p.o. 3.0 mg/kg, 6 cases",42.0%
same,Residual rate in stomach (%),"[1]; s.c. 0.1 mg/kg, 5 cases",51.8%
same,Residual rate in stomach (%),"[1]; s.c. 1.0 mg/kg, 5 cases",50.3%
same,Residual rate in stomach (%),"[1]; s.c. 10.0 mg/kg, 4 cases",36.8%
same,Contraction frequency (% of value prior to administration),[2]; [7],182.3%
same,Motility index (% of value prior to administration),[2]; [7],169.3%
same,Motility index (% of value prior to administration),"[2]; 20 min after administration, N = 4",188.1%
same,Contraction frequency (% of value prior to administration),"[2]; 20 min after administration, N = 4, *: P < 0.05",243.5%
same,Contraction frequency (% of value prior to administration),[2]; [8],187.0%
same,Motility index (% of value prior to administration),[2]; [8],144.2%
same,Contraction frequency (% of value prior to administration),[2]; [9],134.7%
same,Motility index (% of value prior to administration),[2]; [9],83.3%
same,Contraction frequency (% of value prior to administration),[2]; [10],134.9%
same,Motility index (% of value prior to administration),[2]; [10],88.8%
same,Contraction frequency (% of value prior to administration),[2]; [11],141.6%
same,Motility index (% of value prior to administration),[2]; [11],108.8%
same,effect on gastric motility,"[2]; 1 mg/kg, i.p.",accelerated the gastric motility
same,EC50,[3],21.4 nM
same,"serotonin 4 receptor stimulating activity, comparison with Compounds 2 to 7","[3]; in words, from Table 2",much more potent serotonin 4 receptor stimulating activity than any of the other compounds
same,Motility index (% of value prior to administration),"[4]; 0.3 mg/kg intravenous, 15 min, N = 3",371.4%
same,Motility index (% of value prior to administration),"[4]; 0.3 mg/kg intravenous, 30 min, N = 3",322.6%
same,Motility index (% of value prior to administration),"[4]; 0.3 mg/kg intravenous, 45 min, N = 3, *: P < 0.05",282.3%
same,Motility index (% of value prior to administration),"[4]; 0.3 mg/kg intravenous, 60 min, N = 3, *: P < 0.05",261.1%
same,Motility index (% of value prior to administration),"[4]; 0.3 mg/kg intravenous, 75 min, N = 3, **: P < 0.01",281.9%
same,Motility index (% of value prior to administration),"[4]; 0.3 mg/kg intravenous, 90 min, N = 3, *: P < 0.05",262.1%
same,Motility index (% of value prior to administration),"[4]; 0.3 mg/kg intravenous, 105 min, N = 3, *: P < 0.05",242.9%
same,Motility index (% of value prior to administration),"[4]; 0.3 mg/kg intravenous, 120 min, N = 3",195.2%
same,Motility index (% of value prior to administration),"[4]; 1 mg/kg oral, 15 min, N = 3",116.4%
same,Motility index (% of value prior to administration),"[4]; 1 mg/kg oral, 30 min, N = 3",193.5%
same,Motility index (% of value prior to administration),"[4]; 1 mg/kg oral, 45 min, N = 3, *: P < 0.05",191.4%
same,Motility index (% of value prior to administration),"[4]; 1 mg/kg oral, 60 min, N = 3, **: P < 0.01",206.9%
same,Motility index (% of value prior to administration),"[4]; 1 mg/kg oral, 75 min, N = 3, *: P < 0.05",202.2%
same,Motility index (% of value prior to administration),"[4]; 1 mg/kg oral, 90 min, N = 3, *: P < 0.05",192.5%
same,Motility index (% of value prior to administration),"[4]; 1 mg/kg oral, 105 min, N = 3, *: P < 0.05",207.3%
same,Motility index (% of value prior to administration),"[4]; 1 mg/kg oral, 120 min, N = 3",194.9%
same,Motility index (% of value prior to administration),"[4]; 1 mg/kg oral, 180 min, N = 3",195.8%
same,Motility index (% of value prior to administration),"[4]; 1 mg/kg oral, 210 min, N = 3",176.2%
same,Motility index (% of value prior to administration),"[4]; 1 mg/kg oral, 240 min, N = 3",182.8%
same,effect on the motor action of the gastrointestinal tract,"[4]; intravenous and oral, both during fasting period and after feeding",showed acceleration on the motor action of the gastrointestinal tract
same,toxic change,"[5]; 100 mg/kg daily, oral, 14 consecutive days",no toxic change was noted
same,body weight,[5]; [12],prevention of body weight increase was noted
same,"secondary changes in organs (liver, thymus, adrenogenital organ, adrenal, etc.)",[5]; [12],"secondary changes accompanied by aggravation of general conditions were observed in the liver, thymus, adrenogenital organ, adrenal, etc."
same,overall toxicity,"[5]; 14-day oral, taking into account pharmacological activities",the toxicity is reasonably assumed to be weak
same,effect on intestinal transit,[6]; oral and subcutaneous,accelerated the intestinal transit
same,Intestinal transit (%),"[6]; p.o. 1 mg/kg, 5 cases",100.6%
same,Intestinal transit (%),"[6]; p.o. 3 mg/kg, 5 cases",121.4%
same,Intestinal transit (%),"[6]; p.o. 10 mg/kg, 6 cases",120.4%
same,Intestinal transit (%),"[6]; s.c. 1 mg/kg, 5 cases",116.6%
same,Intestinal transit (%),"[6]; s.c. 3 mg/kg, 4 cases",117.8%
same,Intestinal transit (%),"[6]; s.c. 10 mg/kg, 6 cases, **: P < 0.01",138.3%
